# Laboratory results from US4945055A, “Human chorionic gonadotropin releasing factor” (Board of Regents, University of Texas System, priority 1986, dated 1990).
# pKd: −log10 of the molar value.
# What was measured:
# [1] = system: human chorionic gonadotropin releasing factor (hCG-RF), glycoprotein purified from human term placenta, peptidase activity degrading GnRH; assay: Loss of GnRH immunoreactivity on incubation with hCG-RF (GnRH-RIA after Sephadex G-150); format: biochemical; settings: hCG-RF 41 ug, GnRH 40 ng, 24 h at 4° C.
# Protocol: The effect of purified hCG-RF on GnRH immunoreactivity was studied. […] Chromatography of 0.1 ml of the incubate on Sephadex G-150 (1×20 cm in 0.01M TRIS, 0.001M DTT) followed, collecting 1 ml fraction. Immunoreactive GnRH was determined by GnRH-RIA.
# [2] = biological target: placental receptor recognizing synthetic GnRH; settings: read-out: dissociation constant of the placental receptor for synthetic GnRH; cited from earlier work
compound,measurement,setting,value
N=C(N)c1ccc(N)cc1 [para-amino-benzamidine],reversal of the loss of GnRH immunoreactivity effected by incubation with hCG-RF,[1]; 175 mM para-amino-benzamidine added with the buffer,totally reversed
"CC(C)C[C@H](NC(=O)CNC(=O)[C@H](Cc1ccc(O)cc1)NC(=O)[C@H](CO)NC(=O)[C@H](Cc1c[nH]c2ccccc12)NC(=O)[C@H](Cc1c[nH]cn1)NC(=O)[C@@H]1CCC(=O)N1)C(=O)N[C@@H](CCCNC(=N)N)C(=O)N1CCC[C@H]1C(=O)NCC(N)=O [synthetic GnRH, pyro-glu-his-trp-ser-tyr-gly-leu-arg-pro-gly-NH2]",pKd,[2],7.00
bacitracin,reversal of the loss of GnRH immunoreactivity effected by incubation with hCG-RF,[1]; 5000 unit bacitracin added with the buffer,totally reversed
